Where a name gives a salt, the structure may show the parent alone.

Among the data in US20250122225A1, “MASP-2 INHIBITORS AND METHODS OF USE” (Omeros Corporation, priority 2023, published 2025) are Ki values, retold here.

The target of one test is T1, MASP-2 (CCP1-CCP2-SP) (Homo sapiens, UniProt O00187).
T1 construct: 15 μL of Enzyme MASP-2 (CCP1-CCP2-SP) in Assay Buffer
Briefly: Enzymatic assay for MASP-2 inhibitory activity (fluorogenic substrate). Format: biochemical. In a few lines: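 Fluorescence was normalized between no-enzyme and DMSO-only controls to derive % activity, with IC50 taken as equivalent to Ki except for tight-binding inhibitors. Reactions ran 20 min at room temperature in HEPES pH 7.4/NaCl/Tween 20 buffer, using the C2-derived fluorogenic substrate, before acetic acid stop.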

In a further test the target is T2, human α-thrombin (Homo sapiens, UniProt P00734).
T2 construct: enzyme (human α-thrombin (BioPharm® Lab.)) in assay buffer; purchased BioPharm® Lab
Briefly: Enzymatic assay for thrombin (fluorogenic peptide substrate Boc-VPR-AMC). Type of test: biochemical. The procedure, abridged:
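Assay conditions kept the reaction linear in time, enzyme and substrate, so IC50 approximated Ki apart from tight- or slow-binding cases. Boc-VPR-AMC cleavage by human α-thrombin proceeded 20 min at room temperature in Hepes pH 7.4/NaCl/Tween 20 buffer, then was acid-quenched and read by fluorescence.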

T1 sequence (O00187 445-686 limits assumed): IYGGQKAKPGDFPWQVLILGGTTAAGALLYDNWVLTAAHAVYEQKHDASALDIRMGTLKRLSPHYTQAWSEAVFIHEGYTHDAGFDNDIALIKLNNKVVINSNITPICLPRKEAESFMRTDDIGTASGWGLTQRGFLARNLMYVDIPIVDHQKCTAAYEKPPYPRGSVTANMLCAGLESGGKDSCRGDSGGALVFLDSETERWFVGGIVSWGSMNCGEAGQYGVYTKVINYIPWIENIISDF
T1 sequence (O00187 287-444 partner limits assumed): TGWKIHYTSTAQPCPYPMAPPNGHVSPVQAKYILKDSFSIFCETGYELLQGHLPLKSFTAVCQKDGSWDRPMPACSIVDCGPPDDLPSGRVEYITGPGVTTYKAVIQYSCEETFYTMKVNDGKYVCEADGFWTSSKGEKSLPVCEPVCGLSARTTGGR

Take `COc1cc(C)cc(CNc2ncc3n(c2=O)[C@H](C(=O)NCc2ccc(N)nc2C)C[C@@H]3Cc2ccccc2)c1` [Compound 138, (6S,8S)-N-((6-amino-2-methylpyridin-3-yl)methyl)-8-benzyl-3-((3-methoxy-5-methylbenzyl)amino)-4-oxo-4,6,7,8-tetrahydropyrrolo[1,2-a]pyrazine-6-carboxamide]: the Ki at MASP-2 (CCP1-CCP2-SP) and at human α-thrombin was less than 500 nM in each case.

Consider `Cc1cc2[nH]c(CNC(=O)[C@@H]3C[C@H](Cc4ccccc4)c4cnc(NC5CCC5)c(=O)n43)cc2cn1` [Compound 139, (6S,8S)-8-benzyl-3-(cyclobutylamino)-N-((6-methyl-1H-pyrrolo[3,2-c]pyridin-2-yl)methyl)-4-oxo-4,6,7,8-tetrahydropyrrolo[1,2-a]pyrazine-6-carboxamide], for which the Ki at MASP-2 (CCP1-CCP2-SP) was less than 500 nM; at human α-thrombin, 10000 to 25000 nM.

Regarding `COc1cc(C)cc(CNc2ncc3n(c2=O)[C@H](C(=O)NCc2cc4cnccc4[nH]2)C[C@@H]3Cc2ccccc2)c1` [Compound 141, (6S,8S)-N-((1H-pyrrolo[3,2-c]pyridin-2-yl)methyl)-8-benzyl-3-((3-methoxy-5-methylbenzyl)amino)-4-oxo-4,6,7,8-tetrahydropyrrolo[1,2-a]pyrazine-6-carboxamide], the Ki on MASP-2 (CCP1-CCP2-SP) was less than 500 nM; on human α-thrombin, 500 to 2500 nM.

As to `O=C(NCc1cc2cnccc2[nH]1)[C@@H]1C[C@H](Cc2ccccc2)c2cnc(NC3CCC3)c(=O)n21` [Compound 142, (6S,8S)-N-((1H-pyrrolo[3,2-c]pyridin-2-yl)methyl)-8-benzyl-3-(cyclobutylamino)-4-oxo-4,6,7,8-tetrahydropyrrolo[1,2-a]pyrazine-6-carboxamide], the Ki on MASP-2 (CCP1-CCP2-SP) was less than 500 nM; at human α-thrombin, 2500 to 10000 nM.

For `O=C(NCc1cc2cnccc2[nH]1)[C@@H]1CCc2c(Cl)nc(NCc3cccc(-c4ccccc4)c3)c(=O)n21` [Compound 143, (S)—N-((1H-pyrrolo[3,2-c]pyridin-2-yl)methyl)-3-(([1,1′-biphenyl]-3-ylmethyl)amino)-1-chloro-4-oxo-4,6,7,8-tetrahydropyrrolo[1,2-a]pyrazine-6-carboxamide], the Ki on MASP-2 (CCP1-CCP2-SP) was less than 500 nM; on human α-thrombin it was more than 25000 nM.

For the compound `N#Cc1cccc(CNc2nc(Cl)c3n(c2=O)[C@H](C(=O)NCc2cc4cnccc4[nH]2)CC3)c1` [Compound 144, (S)-N-((1H-pyrrolo[3,2-c]pyridin-2-yl)methyl)-1-chloro-3-((3-cyanobenzyl)amino)-4-oxo-4,6,7,8-tetrahydropyrrolo[1,2-a]pyrazine-6-carboxamide], the Ki was less than 500 nM on MASP-2 (CCP1-CCP2-SP) and 2500 to 10000 nM on human α-thrombin.

Turning to `O=C(NCc1cc2cnccc2[nH]1)[C@@H]1CCc2c(Cl)nc(NCC3CCc4ccccc4C3)c(=O)n21` (stereo partly drawn) [Compound 145, (6S)-N-((1H-pyrrolo[3,2-c]pyridin-2-yl)methyl)-1-chloro-4-oxo-3-(((1,2,3,4-tetrahydronaphthalen-2-yl)methyl)amino)-4,6,7,8-tetrahydropyrrolo[1,2-a]pyrazine-6-carboxamide], the Ki at MASP-2 (CCP1-CCP2-SP) is less than 500 nM; on human α-thrombin, more than 25000 nM.

In the case of `Cc1nc(N)ccc1CNC(=O)[C@@H]1CCc2c(Cl)nc(NCC3COC3)c(=O)n21` [Compound 146, (S)-N-((6-amino-2-methylpyridin-3-yl)methyl)-1-chloro-3-((oxetan-3-ylmethyl)amino)-4-oxo-4,6,7,8-tetrahydropyrrolo[1,2-a]pyrazine-6-carboxamide], the Ki at MASP-2 (CCP1-CCP2-SP) was in the range of 500 to 2500 nM; on human α-thrombin, 10000 to 25000 nM.

Take `O=C(NCc1cc2cnccc2[nH]1)[C@@H]1CCc2cnc(NCc3cccc(-c4ccccc4)c3)c(=O)n21` [Compound 147, (S)—N-((1H-pyrrolo[3,2-c]pyridin-2-yl)methyl)-3-(([1,1′-biphenyl]-3-ylmethyl)amino)-4-oxo-4,6,7,8-tetrahydropyrrolo[1,2-a]pyrazine-6-carboxamide]: the Ki on MASP-2 (CCP1-CCP2-SP) was less than 500 nM; on human α-thrombin it was 2500 to 10000 nM.

Take `O=C(NCc1cc2cnccc2[nH]1)[C@@H]1CCc2cnc(NCC3CCc4ccccc4C3)c(=O)n21` (stereo partly shown) [Compound 148]: the Ki at MASP-2 (CCP1-CCP2-SP) was less than 500 nM; at human α-thrombin, 500 to 2500 nM.

Consider `Cc1nc(N)ccc1CNC(=O)C1CCc2c(Cl)nc(NCc3cnccn3)c(=O)n21` (stereo not shown) [Compound 149, N-((6-amino-2-methylpyridin-3-yl)methyl)-1-chloro-4-oxo-3-((pyrazin-2-ylmethyl)amino)-4,6,7,8-tetrahydropyrrolo[1,2-a]pyrazine-6-carboxamide], for which the Ki is less than 500 nM on MASP-2 (CCP1-CCP2-SP) and 2500 to 10000 nM at human α-thrombin.

Regarding `Cc1nc(N)ccc1CNC(=O)C1CCc2c(Cl)nc(NCc3cncnc3)c(=O)n21` (stereo not shown) [Compound 150], the Ki on MASP-2 (CCP1-CCP2-SP) is less than 500 nM; on human α-thrombin it was 2500 to 10000 nM.

Consider `CC[C@H]1C[C@@H](C(=O)NCc2cc3cnccc3[nH]2)n2c1cnc(NCc1ccccc1)c2=O` [Compound 151, (6S,8S)—N-((1H-pyrrolo[3,2-c]pyridin-2-yl)methyl)-3-(benzylamino)-8-ethyl-4-oxo-4,6,7,8-tetrahydropyrrolo[1,2-a]pyrazine-6-carboxamide], for which the Ki on MASP-2 (CCP1-CCP2-SP) was less than 500 nM; at human α-thrombin it was 500 to 2500 nM.

For the compound `C[C@H]1C[C@@H](C(=O)NCc2cc3cnccc3[nH]2)n2c1cnc(NCc1ccccc1)c2=O` [Compound 152, (6S,8S)-N-((1H-pyrrolo[3,2-c]pyridin-2-yl)methyl)-3-(benzylamino)-8-methyl-4-oxo-4,6,7,8-tetrahydropyrrolo[1,2-a]pyrazine-6-carboxamide], the Ki is less than 500 nM on MASP-2 (CCP1-CCP2-SP) and 2500 to 10000 nM at human α-thrombin.

As for `Cc1cc(C)cc(CNc2ncc3n(c2=O)[C@H](C(=O)NCc2cc4cnccc4[nH]2)C[C@@H]3C)c1` [Compound 153, (6S,8S)-N-((1H-pyrrolo[3,2-c]pyridin-2-yl)methyl)-3-((3,5-dimethylbenzyl)amino)-8-methyl-4-oxo-4,6,7,8-tetrahydropyrrolo[1,2-a]pyrazine-6-carboxamide], the Ki was less than 500 nM on MASP-2 (CCP1-CCP2-SP) and 2500 to 10000 nM at human α-thrombin.

Take `CC[C@H]1C[C@@H](C(=O)NCc2ccc(N)nc2C)n2c1cnc(NCc1ccccc1)c2=O` [Compound 154, (6S,8S)-N-((6-amino-2-methylpyridin-3-yl)methyl)-3-(benzylamino)-8-ethyl-4-oxo-4,6,7,8-tetrahydropyrrolo[1,2-a]pyrazine-6-carboxamide]: the Ki on MASP-2 (CCP1-CCP2-SP) and at human α-thrombin was less than 500 nM in each case.

With `CC[C@H]1C[C@@H](C(=O)NCc2ccc(N)nc2C)n2c1cnc(NCc1cc(C)cc(C)c1)c2=O` [Compound 156, (6S,8S)-N-((6-amino-2-methylpyridin-3-yl)methyl)-3-((3,5-dimethylbenzyl)amino)-8-ethyl-4-oxo-4,6,7,8-tetrahydropyrrolo[1,2-a]pyrazine-6-carboxamide], the Ki on MASP-2 (CCP1-CCP2-SP) and on human α-thrombin was less than 500 nM throughout.

For `CC[C@H]1C[C@@H](C(=O)NCc2ccc(N)nc2)n2c1cnc(NCc1cc(C)cc(C)c1)c2=O` [Compound 157, (6S,8S)-N-((6-aminopyridin-3-yl)methyl)-3-((3,5-dimethylbenzyl)amino)-8-ethyl-4-oxo-4,6,7,8-tetrahydropyrrolo[1,2-a]pyrazine-6-carboxamide], the Ki at MASP-2 (CCP1-CCP2-SP) and on human α-thrombin was less than 500 nM in each case.

On to `CC[C@H]1C[C@@H](C(=O)NCc2cc3c(s2)CNC3)n2c1c(Cl)nc(NCc1ccccc1)c2=O` [Compound 158, (6S,8S)-3-(benzylamino)-1-chloro-N-((5,6-dihydro-4H-thieno[2,3-c]pyrrol-2-yl)methyl)-8-ethyl-4-oxo-4,6,7,8-tetrahydropyrrolo[1,2-a]pyrazine-6-carboxamide hydrochloride], for which the Ki is less than 500 nM on MASP-2 (CCP1-CCP2-SP) and 2500 to 10000 nM on human α-thrombin.

On to `CC[C@H]1C[C@@H](C(=O)NCc2cc3cnccc3[nH]2)n2c1c(Cl)nc(NCc1ccccc1)c2=O` [Compound 159, (6S,8S)—N-((1H-pyrrolo[3,2-c]pyridin-2-yl)methyl)-3-(benzylamino)-1-chloro-8-ethyl-4-oxo-4,6,7,8-tetrahydropyrrolo[1,2-a]pyrazine-6-carboxamide], for which the Ki on MASP-2 (CCP1-CCP2-SP) was less than 500 nM; at human α-thrombin, 10000 to 25000 nM.

With `CC[C@H]1C[C@@H](C(=O)NCc2cc3cnccc3[nH]2)n2c1c(Cl)nc(NCc1cc(C)cc(C)c1)c2=O` [Compound 160, (6S,8S)-N-((1H-pyrrolo[3,2-c]pyridin-2-yl)methyl)-1-chloro-3-((3,5-dimethylbenzyl)amino)-8-ethyl-4-oxo-4,6,7,8-tetrahydropyrrolo[1,2-a]pyrazine-6-carboxamide], the values for the Ki on MASP-2 (CCP1-CCP2-SP) and on human α-thrombin were less than 500 nM and more than 25000 nM, respectively.

Regarding `CC[C@H]1C[C@@H](C(=O)NCc2cc3c(s2)CNC3)n2c1cnc(NCc1ccccc1)c2=O` [Compound 161, (6S,8S)-3-(benzylamino)-N-((5,6-dihydro-4H-thieno[2,3-c]pyrrol-2-yl)methyl)-8-ethyl-4-oxo-4,6,7,8-tetrahydropyrrolo[1,2-a]pyrazine-6-carboxamide hydrochloride], the Ki at MASP-2 (CCP1-CCP2-SP) was less than 500 nM; at human α-thrombin it was 500 to 2500 nM.

Consider `O=C(NCc1cc2cnccc2[nH]1)[C@@H]1CCc2c(Cl)nc(NCc3ccc4c(c3)CCCC4)c(=O)n21` [Compound 162, (S)—N-((1H-pyrrolo[3,2-c]pyridin-2-yl)methyl)-1-chloro-4-oxo-3-(((5,6,7,8-tetrahydronaphthalen-2-yl)methyl)amino)-4,6,7,8-tetrahydropyrrolo[1,2-a]pyrazine-6-carboxamide], for which the Ki at MASP-2 (CCP1-CCP2-SP) was less than 500 nM; at human α-thrombin it was more than 25000 nM.
